The numbers were not newly measured in patent US8771972B2 (Saladax Biomedical Inc., priority 2011, dated 2014), which cites them from elsewhere.

Structures are written as SMILES.

The conditions of the series: background statement.

For `C[N+]1([O-])CCN(C2=Nc3cc(Cl)ccc3Nc3ccccc32)CC1` [N-Oxide derivative, Clozapine-N-oxide], the activity of metabolite result is “inactive”.
With `Clc1ccc2c(c1)N=C(N1CCNCC1)c1ccccc1N2` [N-desmethyl metabolite, N-desmethylclozapine], the activity of metabolite entry is “limited activity”.
